# Experimental data taken from patent US12378224B2 (Dong-A Socio Holdings Co., Ltd., priority 2016, dated 2025).
# Target: human c-MER catalytic domain (Homo sapiens (Human), UniProt Q12866)
# Assay: TR-FRET Kinase Activity Biochemical Assay (LanthaScreen)
# Details: 10 uM ATP, 1 hour, kinase not given
# Text: For the SAR (structure-activity relationship) and compound screening, LanthaScreen™ TR-FRET (Time-Resolved fluorescence energy transfer) assay was employed using the phospho-tyrosine specific Terbium (Tb)-labelded antibody with a fluorescein labeled poly-GT (glutamate-tyrosine) as a substrate. Upon excitation at 340 nm by UV, the energy from Tb donor of the antibody is transferred to the fluorescein of the phosphorylated poly GT substrate, and fluorescein emits light at 520 nm. The ratio between the intensity of […] was used to quantify the level of kinase activity. The recombinant proteins of human c-MER and AXL catalytic domains, Fluorescein-labeled poly-GT substrate, Tb-labeled anti-phosphorylated tyrosine antibodies, the kinase assay buffer, and 0.5M EDTA solution were purchased (Life technologies, USA). The TR-FRET assays were carried out in the white low volume 384-well plate (Corning, USA). […] 10 mM EDTA was added to terminate the enzyme reaction, and the level of phosphorylation of poly-GT substrate was determined following 30 min incubation with 2 nM Tb-labeled antibody. The fluorescence intensity was measured with Envision™ plate reader (PerkinElmer, USA).
# Sequence of human c-MER catalytic domain (Q12866 587-858): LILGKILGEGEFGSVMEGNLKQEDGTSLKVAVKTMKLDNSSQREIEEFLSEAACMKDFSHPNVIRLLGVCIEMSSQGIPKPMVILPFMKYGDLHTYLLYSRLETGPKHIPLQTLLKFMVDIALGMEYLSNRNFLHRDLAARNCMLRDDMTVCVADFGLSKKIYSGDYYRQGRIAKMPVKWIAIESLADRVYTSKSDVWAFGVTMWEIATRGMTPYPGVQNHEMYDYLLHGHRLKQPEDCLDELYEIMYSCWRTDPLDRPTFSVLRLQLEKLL
row,SMILES,IC50 [nM]
1,"Cn1cc(-c2cnc(N)c(C(=O)N[C@@H]3CCN(C(=O)O[C@H]4CCN(c5ccccc5)C4)C3)c2)cn1 [Example 128, (S)-1-phenylpyrrolidin-3-yl (R)-3-(2-amino-5-(1-methyl-1H-pyrazol-4-yl)nicotinamido)pyrrolidine-1-carboxylate]",100 to 1000
2,"Cc1ccc(N2CC[C@@H](NC(=O)c3cc(-c4cnn(C)c4)cnc3N)C2)cc1 [Example 134, (R)-2-amino-5-(1-methyl-1H-pyrazol-4-yl)-N-(1-(p-tolyl)pyrrolidin-3-yl)nicotinamide]",> 1000
3,"Cn1cc(-c2cnc(N)c(C(=O)N[C@@H]3CCN(c4ncc([N+](=O)[O-])s4)C3)c2)cn1 [Example 138, (R)-2-amino-5-(1-methyl-1H-pyrazol-4-yl)-N-(1-(5-nitrothiazol-2-yl)pyrrolidin-3-yl)nicotinamide]",> 1000
4,"CC(c1ccccc1Cl)N1CC[C@@H](NC(=O)c2cc(-c3cnn(C4CCNCC4)c3)cnc2N)C1 (stereo partly drawn) [Example 148, 2-amino-N-((3R)-1-(1-(2-chlorophenyl)ethyl)pyrrolidin-3-yl)-5-(1-(piperidin-4-yl)-1H-pyrazol-4-yl)nicotinamide]",10 to 100
5,"CC(c1cccc(Cl)c1)N1CC[C@@H](NC(=O)c2cc(-c3cnn(C4CCNCC4)c3)cnc2N)C1 (stereo partly drawn) [Example 149, 2-amino-N-((3R)-1-(1-(3-chlorophenyl)ethyl)pyrrolidin-3-yl)-5-(1-(piperidin-4-yl)-1H-pyrazol-4-yl)nicotinamide]",100 to 1000
6,"COc1ccccc1CN1CC[C@@H](NC(=O)c2cc(-c3cnn(C4CCNCC4)c3)cnc2N)C1 [Example 167, (R)-2-amino-N-(1-(2-methoxybenzyl)pyrrolidin-3-yl)-5-(1-(piperidin-4-yl)-1H-pyrazol-4-yl)nicotinamide]",100 to 1000
7,"Cn1cc(-c2cnc(N)c(C(=O)N[C@@H]3CCN(CC(=O)c4ccccc4)C3)c2)cn1 [Example 215, (R)-2-amino-5-(1-methyl-1H-pyrazol-4-yl)-N-(1-(2-oxo-2-phenylethyl)pyrrolidin-3-yl)nicotinamide]",> 1000
8,"COc1cccc(CN2CC[C@@H](NC(=O)c3cc(-c4cnn(C)c4)cnc3N)C2)c1OC [Example 217, (R)-2-amino-N-(1-(2,3-dimethoxybenzyl)pyrrolidin-3-yl)-5-(1-methyl-1H-pyrazol-4-yl)nicotinamide]",100 to 1000
9,"Cn1cc(-c2cnc(N)c(C(=O)N[C@@H]3CCN(Cc4cccc(Oc5ccccc5)c4)C3)c2)cn1 [Example 221, (R)-2-amino-5-(1-methyl-1H-pyrazol-4-yl)-N-(1-(3-phenoxybenzyl)pyrrolidin-3-yl)nicotinamide]",> 1000
10,"Cn1cc(-c2cnc(N)c(C(=O)N[C@@H]3CCN(Cc4cccc(OCc5ccccc5)c4)C3)c2)cn1 [Example 222, (R)-2-amino-N-(1-(3-(benzyloxy)benzyl)pyrrolidin-3-yl)-5-(1-methyl-1H-pyrazol-4-yl)nicotinamide]",100 to 1000
11,"Cn1cc(-c2cnc(N)c(C(=O)N[C@@H]3CCN(Cc4cc(Cl)cc(Cl)c4O)C3)c2)cn1 [Example 223, (R)-2-amino-N-(1-(3,5-dichloro-2-hydroxybenzyl)pyrrolidin-3-yl)-5-(1-methyl-1H-pyrazol-4-yl)nicotinamide]",100 to 1000
12,"Cn1cc(-c2cnc(N)c(C(=O)N[C@@H]3CCN(CCc4cccc(Br)c4)C3)c2)cn1 [Example 234, (R)-2-amino-N-(1-(3-bromophenethyl)pyrrolidin-3-yl)-5-(1-methyl-1H-pyrazol-4-yl)nicotinamide]",100 to 1000
13,"Nc1ncc(-c2ccc(C(=O)N3CCOCC3)cc2)cc1C(=O)N[C@@H]1CCN(Cc2ccc(Cl)cc2)C1 [Example 235, (R)-2-amino-N-(1-(4-chlorobenzyl)pyrrolidin-3-yl)-5-(4-(morpholine-4-carbonyl)phenyl)nicotinamide]",100 to 1000
14,"CN1CCN(Cc2ccc(-c3cnc(N)c(C(=O)N[C@@H]4CCN(Cc5ccc(Cl)cc5)C4)c3)cc2)CC1 [Example 236, (R)-2-amino-N-(1-(4-chlorobenzyl)pyrrolidin-3-yl)-5-(4-((4-methylpiperazin-1-yl)methyl)phenyl)nicotinamide]",100 to 1000
15,"N#Cc1ccc(-c2cnc(N)c(C(=O)N[C@@H]3CCN(Cc4ccc(Cl)cc4)C3)c2)cc1 [Example 238, (R)-2-amino-N-(1-(4-chlorobenzyl)pyrrolidin-3-yl)-5-(4-cyanophenyl)nicotinamide]",> 1000
16,"CC(=O)N1CCC(n2cc(-c3cnc(N)c(C(=O)N[C@@H]4CCN(Cc5ccccc5)C4)c3)cn2)CC1 [Example 240, (R)-5-(1-(1-acetylpiperidin-4-yl)-1H-pyrazol-4-yl)-2-amino-N-(1-benzylpyrrolidin-3-yl)nicotinamide]",100 to 1000
17,"Cn1cc(-c2cnc(N)c(C(=O)N[C@@H]3CCN(Cc4ccccc4-c4cccc(CO)c4)C3)c2)cn1 [Example 247, (R)-2-amino-N-(1-((3′-(hydroxymethyl)-[1,1′-biphenyl]-2-yl)methyl)pyrrolidin-3-yl)-5-(1-methyl-1H-pyrazol-4-yl)nicotinamide]",100 to 1000
18,"Cn1cc(-c2cnc(N)c(C(=O)N[C@@H]3CCN(Cc4ccccc4-c4ccc(CO)cc4)C3)c2)cn1 [Example 248, (R)-2-amino-N-(1-((4′-(hydroxymethyl)-[1,1′-biphenyl]-2-yl)methyl)pyrrolidin-3-yl)-5-(1-methyl-1H-pyrazol-4-yl)nicotinamide]",100 to 1000
19,"Cn1cc(-c2cnc(N)c(C(=O)N[C@@H]3CCN(Cc4ccc(F)c(-c5ccccc5)c4)C3)c2)cn1 [Example 249, (R)-2-amino-N-(1-((6-fluoro-[1,1′-biphenyl]-3-yl)methyl)pyrrolidin-3-yl)-5-(1-methyl-1H-pyrazol-4-yl)nicotinamide]",100 to 1000
20,"Cn1cc(-c2cnc(N)c(C(=O)N[C@@H]3CCN(Cc4ccc(F)c(C5=CCNCC5)c4)C3)c2)cn1 [Example 252, (R)-2-amino-N-(1-(4-fluoro-3-(1,2,3,6-tetrahydropyridin-4-yl)benzyl)pyrrolidin-3-yl)-5-(1-methyl-1H-pyrazol-4-yl)nicotinamide]",> 1000
21,"CN1CCN(Cc2ccc(-c3cccc(CCN4CC[C@@H](NC(=O)c5cc(-c6cnn(C)c6)cnc5N)C4)c3)cc2)CC1 [Example 253, (R)-2-amino-5-(1-methyl-1H-pyrazol-4-yl)-N-(1-(2-(4′-((4-methylpiperazin-1-yl)methyl)-[1,1′-biphenyl]-3-yl)ethyl)pyrrolidin-3-yl)nicotinamide]",> 1000
22,"CN(C)Cc1ccc(-c2cccc(NC(=O)N3CC[C@@H](NC(=O)c4cc(-c5cnn(C)c5)cnc4N)C3)c2)cc1 [Example 266, (R)-2-amino-N-(1-((4′-((dimethylamino)methyl)-[1,1′-biphenyl]-3-yl)carbamoyl)pyrrolidin-3-yl)-5-(1-methyl-1H-pyrazol-4-yl)nicotinamide]",10 to 100
23,"Cn1cc(-c2cnc(N)c(C(=O)N[C@@H]3CCN(C(=O)Nc4ccc(-c5cccc(CN)c5)cc4)C3)c2)cn1 [Example 269, (R)-2-amino-N-(1-((3′-(aminomethyl)-[1,1′-biphenyl]-4-yl)carbamoyl)pyrrolidin-3-yl)-5-(1-methyl-1H-pyrazol-4-yl)nicotinamide]",10 to 100
24,"CN1CCN(Cc2cccc(-c3ccc(NC(=O)N4CC[C@@H](NC(=O)c5cc(-c6cnn(C)c6)cnc5N)C4)cc3)c2)CC1 [Example 272, (R)-2-amino-5-(1-methyl-1H-pyrazol-4-yl)-N-(1-((3′-((4-methylpiperazin-1-yl)methyl)-[1,1′-biphenyl]-4-yl)carbamoyl)pyrrolidin-3-yl)nicotinamide]",100 to 1000
